Measurements published in patent publication US8772318B2, “Methods and compositions related to targeting monoacylglycerol lipase” (The Scripps Research Institute, priority 2008, dated 2014).
“Also recorded” adds a separate entry of the source.

Tests used:
[1] = system: human cancer cell lines (C8161, SKOV3, 231MFP, MUM2C, OVCAR3); test: Cell migration assay (Transwell); type: cell-based; details: for migration of MUM2C and OVCAR3 cells / migratory activity of shMAGL or JZL184-treated MAGL-OE cancer cells: 20 μM; for migration of cancer cells: 100 μM, 4 hr preincubation and coincubation with migration; for impaired migration of shMAGL cancer cells: 100 nM
Description: Cell migration, cell survival, and invasion studies. Migration assays were performed in Transwell chambers (Corning) with 8 μm pore-sized membranes coated with 10 μg/ml collagen for 4 h at 37° C. A total of 24 hr before the start of the migration assay, cancer cell lines were plated at a concentration of 1×10^6 cells per 6 cm dish. At the start of the migration assay, cells were harvested by washing two times with PBS and were then serum starved in serum-free media for 4 hr. Inhibitor, lipid or vehicle (0.1% DMSO) were preincubated with the cells during this 4 h time. Serum-starved cells were trypsinized, spun at 1400×g for 3 min, resuspended, and counted. 50,000 cells were seeded in the upper chamber of the transwells in 200 μl serum-free media (containing inhibitor, lipid or vehicle). Inhibitor, lipid or vehicle was also added to the lower chamber, and cells were allowed to migrate for 5 h (for C8161 and 231MFP cells) or 20 hr (SKOV3, MUM2C and OVCAR3 cells). The filters were then fixed and stained with Diff-Quik (Dade Behring). Cells that had not migrated through the chamber were removed with a cotton ball. The cells that migrated were counted at a magnification of 400×, and 4 fields were independently counted from each migration chamber. An average of cells in 4 fields for one migration chamber represents n=1.

[2] = system: human cancer cell lines (C8161, SKOV3, 231MFP, MUM2C, OVCAR3); test: Lipid measurements in cancer cells; type: cell-based; details: 4 hr
Description: Pharmacological inhibition of MAGL in cancer cells. Pharmacological inhibition studies were conducted as described previously (Chiang et al., Chem. Biol. 13:1041-1050, 2006). Cancer cells were maintained in RPMI medium 1640 with 10% (v/v) fetal calf serum at 37° C. in a humidified atmosphere of 5% CO2/95% air. At 80% confluency, cells were trypsinized and counted using a hemocytometer, and 1×10^6 cells were plated in 6 cm dishes (subconfluent). […] After incubation for 4 hr, the cells were harvested and analyzed by ABPP or LC-MS.
Lipid measurements in cancer cells. Lipid measurements were conducted similarly to protocols described previously (Chiang et al., 2006; supra). Cancer cells were grown in serum-free media for 4 hrs to minimize the contribution of serum-derived lipids to the cellular profiles. The cells (1×10^6 cells/6 cm dish, 80% confluency) were washed with twice with phosphate buffer saline (PBS), isolated by centrifugation at 1,400×g, and dounce-homogenized in 4 ml of a 2:1:1 mixture of chloroform:methanol:Tris buffer. Samples were homogenized in the presence of the following synthetic standards: C12:0 MAGE (10 nmol), C15:0 FFA (10 nmol). Organic and aqueous layers were separated by centrifugation at 2000×g for 5 min and the organic layer was collected. The aqueous layer was acidified (for metabolites such as LPA) by adding 5% formic acid, followed by the addition of 2 ml chloroform. The mixture was vortexed, and the organic layers were combined, dried down under N2 and dissolved in 100 μl chloroform, of which 30 μl was analyzed by LC-MS.
LC-MS analysis was performed by using an Agilent 1100 LC-MSD SL instrument. […] Mobile phase A was composed of a 95:5 ratio of water:methanol, and mobile phase B consisted of 2-propanol, methanol, and water in a 60:35:5 ratio. Solvent modifiers such as 0.1% formic acid and 0.1% ammonium hydroxide were used to assist ion formation as well as to improve the LC resolution in both positive and negative ionization modes, respectively. The flow rate for each run started at 0.1 ml/min for 5 min, to alleviate backpressure associated with injecting chloroform. The gradient started at 0% B and increased linearly to 100% B over the course of 45 min with a flow rate of 0.4 ml/min, followed by an isocratic gradient of 100% B for 17 min at 0.5 ml/min before equilibrating for 8 min at 0% B with a flow rate of 0.5 ml/min. MS analysis was performed with an electrospray ionization (ESI) source. The capillary voltage was set to 3.0 kV, and the fragmentor voltage was set to 100 V. The drying gas temperature was 350° C., the drying gas flow rate was 10 L/min, and the nebulizer pressure was 35 psi.
Lipidomic analysis was performed in both targeted and untargeted mode by LC-MS analysis. Standard lipid classes were quantitated by targeting using selected ion monitoring (SIM) (except for very high-abundance metabolites which were quantitated by untargeted analysis) and identities of metabolites were confirmed by coelution of metabolites with their respective standards and mass accuracy to within 10 ppm as determined with an accurate mass Agilent 6520 Accurate Mass QTOF-MS-MS. These lipids were quantified by measuring the area under the peak and were normalized to an internal standard (C12:0 MAGE in positive mode or C15:0 FFA in negative mode). […]

MAGL = target: T1, MAGL (Mus musculus, UniProt O35678); test: Competitive ABPP, mouse brain membrane proteome; type: biochemical
T1 construct: from tissue; host or cells: mouse brain membrane fraction (C57Bl/6 mice for the in vivo studies)
T1 sequence (O35678 1-303): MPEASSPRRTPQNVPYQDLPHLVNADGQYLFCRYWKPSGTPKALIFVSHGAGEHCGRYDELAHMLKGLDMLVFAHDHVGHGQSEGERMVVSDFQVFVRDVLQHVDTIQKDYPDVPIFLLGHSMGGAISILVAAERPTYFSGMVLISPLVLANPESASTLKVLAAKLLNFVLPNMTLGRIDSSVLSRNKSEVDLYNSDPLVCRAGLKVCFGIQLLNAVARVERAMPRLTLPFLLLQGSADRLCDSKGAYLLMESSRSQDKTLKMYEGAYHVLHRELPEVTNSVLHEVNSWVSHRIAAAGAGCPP
From the text: First, serine hydrolases are susceptible to covalent inactivation by specific chemical groups that show little or no cross-reactivity with other enzyme classes. […] Second, the functional state of serine hydrolases can be collectively profiled in native biological systems using activity-based protein profiling (ABPP) methods (Cravat et al., Annu Rev Biochem 77:383-414, 2008). ABPP of serine hydrolases uses reporter-tagged fluorophosphonates (FPs), which serve as general activity-based probes for this large and diverse enzyme class (Liu et al., Proc. Natl. Acad. Sci. U.S.A. 96:14694-9, 1999). When performed in a competitive mode, ABPP can serve as a powerful screen to evaluate the potency and selectivity of small-molecule enzyme inhibitors directly in complex proteomes. The screen can be performed as described in the art, e.g., Liu et al., Proc. Natl. Acad. Sci. U.S.A. 96:14694-9, 1999; Li et al., J. Am. Chem. Soc. 129:9594-5, 2007; Leung et al., Nat. Biotech. 21:687-91, 2003; and Greenbaum et al., Mol. Cell. Proteomics 1:60-68, 2002.
Competitive activity-based protein profiling (ABPP) experiments. In vitro inhibitor selectivity was examined using a competitive ABPP method as described in the art (e.g., Li et al., J. Am. Chem. Soc. 129:9594-5, 2007; and Leung et al., Nat. Biotech. 21:687-91, 2003). Briefly, mouse brain membrane proteomes, prepared as described herein, were diluted to 1 mg/ml in PBS and pre-incubated with varying concentrations of inhibitors (1 nM to 10 μM) for 30 min at 37° C. prior to the addition of a FP-rhodamine at a final concentration of 2 μM in a 50 μl of total reaction volume. After 30 min at room temperature, the reactions were quenched with 4×SDS-PAGE loading buffer, boiled for 5 min at 90° C., subjected to SDS-PAGE, and visualized in-gel using a flatbed fluorescence scanner.
Every 10 min, 50 ul of the reaction was removed and treated with FP-rhodamine (2 μM) for 2 min, quenched with 4×SDS-PAGE loading buffer, and boiled for 5 min at 90° C. The combined reactions were subjected to SDS-PAGE and visualized in-gel using a flatbed fluorescence scanner. The percentage activity remaining was determined by measuring the integrated optical density corresponding to the MAGL or FAAH bands and the results were fit to an exponential curve to determine the pseudo-first order rate constants.

Molecule: CCCCCCCCCCCCCCCCCC(=O)O [stearic acid]
- migration of MUM2C and OVCAR3 cells ([1]; 4 h): increases the migration
- migratory activity of shMAGL or JZL184-treated MAGL-OE cancer cells ([1]; 4 h): fully restored their migratory activity

Molecule: COc1ccc(CN2CCNCC2)c(OC)c1OC [trimetazidine]
- migration of cancer cells [1]: did not affect migration

Molecule: CCCCCCCCCCCCCCCC(=O)OC[C@@H](O)COP(=O)(O)O [LPA]
- impaired migration of shMAGL cancer cells ([1]; 4 hr): rescued the impaired migration

Molecule: CCOC(=O)[C@@]1(CCCCCCOc2ccc(Cl)cc2)CO1 [etomoxir]
- migration of cancer cells [1]: did not affect migration
- FFA levels in cancer cells ([2]; 100 μM, exception C20:4 FFA, elevated in C8161 and SKOV3 cells): did not alter FFA levels

Molecule: COc1ccc(C(O)(c2ccc(OC)cc2)C2CCN(C(=O)Oc3ccc([N+](=O)[O-])cc3)CC2)cc1 [JZL175]
- selectivity for MAGL over FAAH and ABHD6 (competitive ABPP) (MAGL): selectivity for MAGL over both FAAH and ABHD6; also recorded: no or greatly reduced inhibitory activity on FAAH as well as ABHD6

Molecule: pertussis toxin
- enhanced migratory activity of MAGL-OE cancer cells ([1]; 100 ng/ml, 4 h): completely blocked

Molecule: COc1ccc(C(=O)c2c(C)n(CCN3CCOCC3)c3cc(I)ccc23)cc1 [AM630]
- migratory defect in shMAGL cancer cells ([1]; antagonist 1 μM, 4 hr): not rescued
- FFA levels in shControl and shMAGL cancer cells ([2]; antagonist 1 μM): unchanged

Molecule: CCCCCCCCCCCCCCCC(=O)O [palmitic acid]
- migration of MUM2C and OVCAR3 cells ([1]; 4 h): increases the migration
- migratory activity of shMAGL or JZL184-treated MAGL-OE cancer cells ([1]; 4 h): fully restored their migratory activity

Molecule: CCCCC[C@H](O)/C=C/[C@H]1[C@H](O)CC(=O)[C@@H]1C/C=C\CCCC(=O)O [PGE2, prostaglandin E2]
- impaired migration of shMAGL cancer cells ([1]; 4 hr): rescued the impaired migration
